#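 Briefly, cells in 96-well plates were exposed to five compound concentrations for 48 h, and endpoints were estimated by linear interpolation. Abbreviation: GI50, concentration required for 50% inhibition of growth.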 The source made the active and inactive calls. Cut-off read from the data, not from the text of the source: active = GI50 up to about 1.1 µM and inactive = higher.
# How the values were obtained:
# Assay in all cases: inhibition of tumour cell growth, NCI panel, 48 h
# [1] = system: COLO 205
# [2] = system: RXF 393
# [3] = system: NCI/ADR-RES
# [4] = system: M14
# [5] = system: DU-145
# [6] = system: HL-60
# [7] = system: SNB-19
# [8] = system: 786-0
# [9] = system: MCF7
# [10] = system: MOLT-4
# [11] = system: UACC-257
# [12] = system: T47D
# [13] = system: SR
# [14] = system: RPMI-8226
# [15] = system: SK-MEL-2
# [16] = system: OVCAR-5
# [17] = system: LOX IMVI
# [18] = system: A549
# [19] = system: KM12
# [20] = system: Hs-578T
SMILES,GI50 [1],GI50 [2],GI50 [3],GI50 [4],GI50 [5],GI50 [6],GI50 [7],GI50 [8],GI50 [9],GI50 [10],GI50 [11],GI50 [12],GI50 [13],GI50 [14],GI50 [15],GI50 [16],GI50 [17],GI50 [18],GI50 [19],GI50 [20]
OC1C2[C@@H](O)CCCN2C[C@@H](O)[C@H]1O (stereo partly specified),> 100 µM (inactive),> 100 µM (inactive),> 100 µM (inactive),> 100 µM (inactive),> 100 µM (inactive),> 100 µM (inactive),> 100 µM (inactive),> 100 µM (inactive),> 100 µM (inactive),> 100 µM (inactive),> 100 µM (inactive),> 100 µM (inactive),> 100 µM (inactive),> 100 µM (inactive),> 100 µM (inactive),> 100 µM (inactive),> 100 µM (inactive),> 100 µM (inactive),> 100 µM (inactive),> 100 µM (inactive)
N=C(N)NC(=N)Nc1ccc(S(N)(=O)=O)cc1,> 100 µM (inactive),> 100 µM (inactive),> 100 µM (inactive),> 100 µM (inactive),> 100 µM (inactive),> 100 µM (inactive),> 100 µM (inactive),> 100 µM (inactive),> 100 µM (inactive),> 100 µM (inactive),> 100 µM (inactive),> 100 µM (inactive),> 100 µM (inactive),> 100 µM (inactive),> 100 µM (inactive),> 100 µM (inactive),> 100 µM (inactive),> 100 µM (inactive),> 100 µM (inactive),> 100 µM (inactive)
C[N+](C)(C)CC(=O)N/N=C\c1c(O)ccc2ccccc12,> 100 µM (inactive),20.9 µM (inactive),33.7 µM (inactive),31.5 µM (inactive),23.8 µM (inactive),14.2 µM (inactive),63.4 µM (inactive),37.8 µM (inactive),59.7 µM (inactive),9.08 µM (inactive),18.7 µM (inactive),32.9 µM (inactive),33.2 µM (inactive),32.1 µM (inactive),28.3 µM (inactive),57.1 µM (inactive),32.7 µM (inactive),> 100 µM (inactive),32.4 µM (inactive),14.4 µM (inactive)
COc1ccc(C(C)c2cc3c(cc2OC)OCO3)cc1 (stereo unspecified),0.135 µM (active),0.264 µM (active),0.0268 µM (active),0.0738 µM (active),0.231 µM (active),0.0802 µM (active),2.61 µM (inactive),0.098 µM (active),0.0461 µM (active),0.264 µM (active),7.38 µM (inactive),2.08 µM (inactive),0.881 µM (active),0.122 µM (active),0.0767 µM (active),3.48 µM (inactive),0.205 µM (active),0.218 µM (active),0.119 µM (active),0.0207 µM (active)
O=C(C(Cl)=C(N1CCCCC1)N1CCCCC1)C(Cl)Cl,> 100 µM (inactive),> 100 µM (inactive),> 100 µM (inactive),> 100 µM (inactive),> 100 µM (inactive),> 100 µM (inactive),> 100 µM (inactive),> 100 µM (inactive),> 100 µM (inactive),> 100 µM (inactive),> 100 µM (inactive),> 100 µM (inactive),> 100 µM (inactive),> 100 µM (inactive),,,> 100 µM (inactive),> 100 µM (inactive),> 100 µM (inactive),> 100 µM (inactive)
CC(=O)Nc1ccc(C(O)/C(=N/N)c2nc3ccc(Cl)cc3nc2O)cc1 (stereo unspecified),> 100 µM (inactive),> 100 µM (inactive),> 100 µM (inactive),> 100 µM (inactive),> 100 µM (inactive),> 100 µM (inactive),> 100 µM (inactive),> 100 µM (inactive),> 100 µM (inactive),> 100 µM (inactive),> 100 µM (inactive),> 100 µM (inactive),> 100 µM (inactive),,> 100 µM (inactive),> 100 µM (inactive),> 100 µM (inactive),> 100 µM (inactive),> 100 µM (inactive),> 100 µM (inactive)
S=C(S)NCCN1CCNCC1,18 µM (inactive),19.8 µM (inactive),> 100 µM (inactive),31.2 µM (inactive),36.1 µM (inactive),< 0.01 µM (active),> 100 µM (inactive),22.3 µM (inactive),40 µM (inactive),,20.7 µM (inactive),10.7 µM (inactive),24.5 µM (inactive),18.6 µM (inactive),67.1 µM (inactive),> 100 µM (inactive),40.1 µM (inactive),> 100 µM (inactive),> 100 µM (inactive),> 100 µM (inactive)
